According to patent US20040209315A1, “Methods to identify agents that increase or decrease UBP43 activity and methods for use of such agents” (priority 2003, published 2004):

What was measured:
[1] = tested on: hematopoietic cells transplanted from UBP43+/+ or UBP43−/− mice; experiment: Bone marrow transplantation, flow cytometric analysis of CD45.2+ donor blood cells before and after poly(I—C) injection; format: in vivo
Excerpt: (a) Hematopoietic cells transplanted from UBP43−/− mice to UBP43+/+ congenic strain mice are hypersensitive to poly(I—C) injection. Bone marrow cells (CD45.2+) from individual UBP43+/+ and UBP43−/− mice (n=4 for each group) were isolated and transplanted to lethally irradiated congenic strain mice (CD45.2−). Six months after the transplantation, flow cytometric analysis was done to determine the relative amount of peripheral blood cells contributed from the donor or recipient mice based on CD45-2 immunostaining before and after poly(I—C) injection (48 h). Flow cytometric analysis results from one representative mouse transplanted with UBP43+/+ or UBP43−/− bone marrow are presented. (b) UBP43−/− bone marrow cells are hypersensitive to IFNβ treatment. Bone marrow cells from UBP43+/+ and UBP43−/− mice were cultured at 2×10^4 cells/ml in CFU assay medium in the presence of various concentrations of IFNβ. Total colony number was counted after 12 days of culture. Results of a single representative experiment of two independent experiments are shown. […]
Bone marrow transplantation. […] The appearance of donor origin blood cells (CD45.2+) was detected by flow cytometric analysis with […] (FITC) conjugated CD45.2 antibodies (BD Biosciences). […]

[2] = tested on: UBP43+/+ and UBP43−/− mice; experiment: Viability of mice after daily ip poly(I—C) injection; format: in vivo; settings: daily ip poly(I—C) 5 μg/g body weight
Procedure: (§1) (a) Seven mice of each group (UBP43 +/+ and UBP43−/−) were ip injected daily with poly(I—C). Viability was monitored daily. (b) UBP43+/+ and UBP43−/− mice (n=4 for each group) were ip injected daily with poly(I—C). The total number of white blood cells (WEC) in the peripheral blood was counted daily after each poly(I—C) injection. (c) UBP43+/+ and UBP43−/− mice (n=5 for each group) were either left untreated or were ip injected with poly(I—C) 24 h prior to bone marrow extraction. Bone marrow cells were counted in control and poly(I—C) injected group of mice (two femurs from each mouse).
(§2) Poly(I—C) injection and hematopoietic cell counting: Poly(I—C) (Sigma) was dissolved in phosphate buffered saline and intraperitoneally (ip) injected to mice at 5 μg/g body weight (gbw). Blood and bone marrow nucleated cells were counted in Turk solution (3% acetic acid and 0.01% crystal violet in H2O).
(§3) UBP43-null mice are sensitive to potent IFN-inducer poly(I—C). Injection with synthetic double stranded RNA-polyinosinic acid-polycytidylic acid (poly(I—C)) has been commonly used to induce endogenous IFN production in mice. […] There were dramatic decreases (over 90%) in the total number of white blood cells in peripheral blood and nucleated cells in bone marrow of UBP43−/− mice.

[3] = tested on: UBP43+/+ and UBP43−/− mice; experiment: Hematopoietic cell counting (peripheral white blood cells, bone marrow nucleated cells) after poly(I—C) injection; format: in vivo
Procedure: as §1, §2, §3

[4] = tested on: UBP43± and UBP43−/− bone marrow cells; experiment: Liquid bone marrow cell culture, Trypan blue dye exclusion assay; format: cell-based, mice; settings: 10 ng/ml, 48 hours
Procedure: (a) Bone marrow cells isolated from UBP43+/+ and UBP43−/− mice were cultured in vitro in the presence or the absence of INFβ (100 units/ml) for 48 hours. TUNEL assay was performed to study the percentage of apoptosis cells. […] Cells were then subjected to Trypan blue dye exclusion assay. Each data point represents the mean of three independent experiments. Error bar represents standard deviation about the mean.
In vitro bone marrow cell culture.
TNFα and the type II IFN-IFNγ are commonly used to study bone marrow cell growth and apoptosis and in the analysis of various knockout mouse models.

Row | Substance | relative amount of CD45.2+ cells in the peripheral blood ([1]; UBP43+/+ donor, 48 h after poly(I—C) injection) | blood cells of the UBP43−/− genotype (CD45.2+) ([1]; UBP43−/− donor, 48 hours post administration, 79% before dosing) [%] | viability ([2]; UBP43+/+ mice (n=7)) | time within which all mice died post treatment ([2]; UBP43−/− mice (n=7)) [h] | decrease in number of total peripheral white blood cells ([3]; UBP43+/+ mice, ip poly(I—C)) [%] | decrease in total bone marrow nucleated cells ([3]; UBP43+/+ mice, ip poly(I—C) 24 h prior to bone marrow extraction) [%] | decrease in total number of white blood cells in peripheral blood ([3]; UBP43−/− mice, ip poly(I—C)) | decrease in nucleated cells in bone marrow ([3]; UBP43−/− mice, ip poly(I—C) 24 h prior to bone marrow extraction) | difference in cell death between UBP43± cells and UBP43−/− cells [4]
1 | polyinosinic acid-polycytidylic acid [poly(I—C)] | did not change | 12 | survived the course of treatment | ≤ 72 | 20 | 30 | over 90% | over 90% | –
2 | IFNγ: type II IFN, proapoptotic cytokine (Peprotech) | – | – | – | – | – | – | – | – | did not cause a significant difference
3 | TNF-α | – | – | – | – | – | – | – | – | did not cause a significant difference
